Measured values reported in US20060286140A1, “Implants with attached silylated therapeutic agents” (priority 2003, published 2006).

Assays:
S. aureus (ATCC 25923) = test: Disc diffusion assay; assay type: cell-based; conditions: 1 μg/mL solution, 20 μL on six mm filter disk, overnight
Experimental: Disc Diffusion Assay. Six mm sterile filter disks can be directly placed onto a full-grown lawn of S. aureus (ATCC 25923) culture, and known volumes (20 μL) and dilutions of the eluted antibiotic can be pipetted onto the disc. After incubation overnight, the area of the resultant adjacent clear zone that is devoid of bacterial growth can be measured and compared with the area cleared by a standard series of known doses of rifampin. A 1 μg/mL solution of rifampin should give a clear zone of 4-5 cm. The lower limit of sensitivity of this assay is expected to be in the 10 ng/mL range.

E. faecalis = conditions: in vitro; cited from earlier work
E. faecium = conditions: in vitro; cited from earlier work
S. aureus = conditions: in vitro, most strains including S. aureus; cited from earlier work

| Structure (SMILES) | clear zone (S. aureus (ATCC 25923)) | activity relative to linezolid (E. faecalis) | activity relative to quinupristin-dalfopristin (E. faecalis) | activity relative to linezolid (E. faecium) | activity relative to quinupristin-dalfopristin (E. faecium) | MIC90 (S. aureus) |
| --- | --- | --- | --- | --- | --- | --- |
| CO[C@H]1/C=C/O[C@@]2(C)Oc3c(C)c(O)c4c(O)c(c(/C=N/N5CCN(C)CC5)c(O)c4c3C2=O)NC(=O)/C(C)=C\C=C\[C@H](C)[C@H](O)[C@@H](C)[C@@H](O)[C@@H](C)[C@H](OC(C)=O)[C@@H]1C (relative stereo) [rifampin, (2S*,12Z,14E,16R*,17R*,18S*,19S*,20S*,21R*,22S*,23R*,24E)-5,6,9,17,19,21-hexahydroxy-23-methoxy-2,4,12,16,18,20,22-heptamethyl-8-[N-(4-methyl-1-piperazinyl)formimidoyl]-2,7-(epoxypentadeca[1,11,13]trienimino)naphtha[2,1-b]furan-1,11-deone 21-acetate] | 4-5 cm |  |  |  |  |  |
| CN(C)c1cc(NC(=O)CNC(C)(C)C)c(O)c2c1C[C@H]1C[C@H]3[C@H](N(C)C)C(O)=C(C(N)=O)C(=O)[C@@]3(O)C(O)=C1C2=O [tigecyclin] |  | ~8 fold | 32 fold | ~8 fold | 32 fold | less than 0.25 mg/mL |
